For test [1], the system named is pancreatic cancer cell line ASPC-1. The test is described as follows: Orthotopic mouse model for pancreatic cancer metastasis. The class given is in vivo. The conditions noted are these: ASPC-1-GFP injected into pancreas of nude mice; 20 mice per group; saline control 60%. How it is done: An orthotopic mouse model for pancreatic cancer metastasis was established to test the effect of Cyc-T on pancreatic cancer. Green flourescent protein (GFP) was expressed in pancreatic cancer cell line ASPC-1, and then injected into pancreas of nude mice.
The effect of cyc-T was tested in the mouse model for pancreatic cancer metastasis described supra.

In the next test the test system is hedgehog signaling. The test is described as follows: Motor neuron differentiation and embryonic body formation from embryonic stem cells. The class given is cell-based. The source says: To test stem cell functions, motor neuron differentiation experiments were used. First embryonic stem cells were used to form stem cell sphere (embryonic bodies, EB). In the presence of retinoic acid (RA) and sonic hedgehog or SMO agonist purmorphamine (AG), several types of neurons can be differentiated. These neurons can be distinguished by distinct markers. Hb9 is regarded as a marker for motor neuron (FIG. 6A).

Test [2] has as its system basal cell carcinomas (BCC). The test is described as follows: Skin tumor shrinkage in mouse BCC models, topical application. The test is classed as in vivo. The conditions noted are these: topical application for 21 days; K14 Ptch1 knockout and K14 SmoM2-YFP mice. As to the method: Quantitative analysis was performed to calculate the percentage of tumor area in a given tissue area. Eight areas were used to measure the average value from each group, which was compared for the efficacy of the drugs.

Molecules are shown by their SMILES. Structures can show the parent of a compound that is named as a salt.

As for `CC1=C2CC3C(CC=C4CC(O)CCC43C)C2CCC12OC1CC(C)CNC1C2C` (stereo not shown) [Cyclopamine tartrate], the “frequency of tumor metastasis” value in test [1] worked out at 32%. The “inhibition of hedgehog signaling / motor neuron differentiation (Hb9 marker)” value in the test on hedgehog signaling (embryonic bodies with retinoic acid and sonic hedgehog or purmorphamine, compared with KAAD-cyclopamine) was “as effective as KAAD-cyclopamine”. Besides, the “number and size of embryonic bodies (EBs)” value in the test on hedgehog signaling (embryonic stem cell spheres, DAPI fluorescent microscopy) is “reduces the number and the size of EBs”. The “efficacy on hedgehog signaling-mediated skin tumors (percentage of tumor area in tissue area)” value in test [2] is reported as “very effective inhibitor for hedgehog signaling-mediated tumors”.
